Source: publication PMC10743905, “Design, Synthesis, and In Vitro and In Vivo Bioactivity Studies of Hydrazide–Hydrazones of 2,4-Dihydroxybenzoic Acid” (International Journal of Molecular Sciences, 2023)
“And” between values parts separate entries of the source, which are not always exact repeats. Equal values may be shown once.

Test system: H1563
Test: MTT antiproliferative assay
Assay type: cell-based, human
Conditions: Homo sapiens, NCI-H1563, 24 h, MTT, 24 h incubation, lung adenocarcinoma
Method: (§1) The in vitro studies were performed on the reference line HEK-293 (human embryonic kidney cells, ATCC® CRL-1573™) and […] human cancer cell lines: 769-P (adenocarcinoma, renal cells, ATCC® CRL-1933™) and HepG2 (carcinoma, hepatocellular, ATCC® HB-8065™), H1563 (adenocarcinoma, non-smallcell lung cancer, ATCC® CRL-5875™), LN-229 (glioblastoma, ATCC® CRL-2611™). Cells from the 769-P and H1563 cell lines were cultured in RPMI-1640 growth medium (PAN Biotech GmbH, Aidenbach, Bayern, Germany), cells from the HEK-293 and HepG2 cell lines were cultured in EMEM growth medium (PAN Biotech GmbH, Aidenbach, Bayern, Germany), and cells from the LN-229 cell line were cultured in DMEM growth medium (PAN Biotech GmbH, Aidenbach, Bayern, Germany) in sterile 75 cm^2 culture phalcones. Fetal bovine serum (PAN Biotech GmbH, Aidenbach, Bayern, Germany) at 10% of growth medium and antibiotics (Sigma-Aldrich, Poland) (2.5 µg/mL amphotericin B, 100 µg/mL penicillin, and 100 µg/mL streptomycin) were added to all media. Cells were cultured at 37 °C in an incubator with 5% CO2 flow until a cell layer was formed. Following this, the medium was removed, and the cells were washed with 0.25% trypsin solution with 2.21 mM EDTA (Corning Incorporated, Corning, NY, USA) in order to completely remove fetal bovine serum containing trypsin inhibitor. Finally, 6 mL of complete growth medium was added, and the cells were aspirated by gentle pipetting.
(§2) The determination of inhibitory concentration (IC50) in the HEK-293, 769-P, HepG2, H1563, and LN-229 cell cultures for selected hydrazide–hydrazones was performed using the MTT assay procedure. This test was performed according to the MTT Assay ECVAM n°17 protocol manual prepared by the European Centre for the Validation of Alternative Methods (ECVAM), an entity that aims to reduce in vivo testing in favor of in vitro and in silico methods. To 96-well sterile plates, 100 μL of cell suspensions, prepared in the appropriate medium at a concentration of 3 × 10^5 cells/mL, was added using a multichannel pipette. To achieve cell adhesion to the bottom of the plates, cells were incubated for 24 h at 37 °C with 5% CO2 flow and 90% humidity. To determine the growth-inhibitory concentration, the solutions of the tested substances (19–24) were prepared at concentrations ranging from 1 µM to 500 µM, added individually to the wells following the rule of 8 wells per concentration, and the plates were again incubated for 24 h at 37 °C and with 5% CO2 addition. We also prepared a background control (200 μL of the respective growth medium) and negative control (100 μL of cells in the appropriate growth medium + 100 μL of the growth medium), which provided information on the amount of formazan formed in the untreated cells. After a 24 h incubation period, the solutions were extracted from the cells; 190 μL of growth medium and 10 μL of 5 mg/mL MTT solution (Invitrogen, Waltham, MA, USA) were added each and incubated for 4 h. After this time, all medium was removed, 100 μL of DMSO (Corning Incorporated, Corning, NY, USA) was added to each well, and absorbance measurements were performed at 550 nm using a Power Weave xs spectrophotometric microplate reader (BioTek, Winooski, VT, USA). The decrease in absorbance is equivalent to the decrease in MTT formazan production, which is due to the decrease in mitochondrial dehydrogenase activity and indicates a cytotoxic effect from the tested substances. Cell viability is expressed as a percentage as the ratio of the absorbance of test substance-treated cells to the untreated cells. The experiments were repeated three times.
(§3) The significance level was taken as p < 0.05.

Structure (SMILES) | IC50 [µM]
O=C(N/N=C/c1ccccc1[N+](=O)[O-])c1ccc(O)cc1O [Compound 19, 2,4-dihydroxy-N-[(2-nitrophenyl)methylidene]benzohydrazide] | 65.7
O=C(N/N=C/c1cccc([N+](=O)[O-])c1)c1ccc(O)cc1O [Compound 20, 2,4-dihydroxy-N-[(3-nitrophenyl)methylidene]benzohydrazide] | 70.9
O=C(N/N=C/c1ccc([N+](=O)[O-])cc1)c1ccc(O)cc1O [Compound 21, 2,4-dihydroxy-N-[(4-nitrophenyl)methylidene]benzohydrazide] | > 500
O=C(N/N=C/c1ccccc1Cl)c1ccc(O)cc1O [Compound 22, N-[(2-chlorophenyl)methylidene]-2,4-dihydroxybenzohydrazide] | 217
O=C(N/N=C/c1ccccc1Br)c1ccc(O)cc1O [Compound 23, N-[(2-bromophenyl)methylidene]-2,4-dihydroxybenzohydrazide] | 101
O=C(N/N=C/c1ccccc1F)c1ccc(O)cc1O [Compound 24, N-[(2-fluorophenyl)methylidene]-2,4-dihydroxybenzohydrazide] | 200

Same assay, conditions: MTT, 24 h incubation, lung adenocarcinoma

Structure (SMILES) | IC50 [µM]
O=C(N/N=C/c1ccccc1[N+](=O)[O-])c1ccc(O)cc1O [Compound 19, 2,4-dihydroxy-N-[(2-nitrophenyl)methylidene]benzohydrazide] | 65.6

Same assay, conditions: ratio IC50 HEK-293 / IC50 H1563

Structure (SMILES) | Selectivity Index
O=C(N/N=C/c1ccccc1[N+](=O)[O-])c1ccc(O)cc1O [Compound 19, 2,4-dihydroxy-N-[(2-nitrophenyl)methylidene]benzohydrazide] | 2.27 × 10^3
O=C(N/N=C/c1cccc([N+](=O)[O-])c1)c1ccc(O)cc1O [Compound 20, 2,4-dihydroxy-N-[(3-nitrophenyl)methylidene]benzohydrazide] | 1.89 × 10^2
O=C(N/N=C/c1ccccc1Cl)c1ccc(O)cc1O [Compound 22, N-[(2-chlorophenyl)methylidene]-2,4-dihydroxybenzohydrazide] | 1.45
O=C(N/N=C/c1ccccc1Br)c1ccc(O)cc1O [Compound 23, N-[(2-bromophenyl)methylidene]-2,4-dihydroxybenzohydrazide] | 9.08 × 10^2
O=C(N/N=C/c1ccccc1F)c1ccc(O)cc1O [Compound 24, N-[(2-fluorophenyl)methylidene]-2,4-dihydroxybenzohydrazide] | 1.94

Test system: LN-229
Test: MTT antiproliferative assay
Assay type: cell-based, human
Conditions: Homo sapiens, LN-229; MTT, 24 h incubation, glioblastoma
Method: as §1, §2, §3

Structure (SMILES) | IC50 [µM]
O=C(N/N=C/c1ccccc1[N+](=O)[O-])c1ccc(O)cc1O [Compound 19, 2,4-dihydroxy-N-[(2-nitrophenyl)methylidene]benzohydrazide] | 130
O=C(N/N=C/c1cccc([N+](=O)[O-])c1)c1ccc(O)cc1O [Compound 20, 2,4-dihydroxy-N-[(3-nitrophenyl)methylidene]benzohydrazide] | > 500
O=C(N/N=C/c1ccc([N+](=O)[O-])cc1)c1ccc(O)cc1O [Compound 21, 2,4-dihydroxy-N-[(4-nitrophenyl)methylidene]benzohydrazide] | 0.77
O=C(N/N=C/c1ccccc1Cl)c1ccc(O)cc1O [Compound 22, N-[(2-chlorophenyl)methylidene]-2,4-dihydroxybenzohydrazide] | 111
O=C(N/N=C/c1ccccc1Br)c1ccc(O)cc1O [Compound 23, N-[(2-bromophenyl)methylidene]-2,4-dihydroxybenzohydrazide] | 157
O=C(N/N=C/c1ccccc1F)c1ccc(O)cc1O [Compound 24, N-[(2-fluorophenyl)methylidene]-2,4-dihydroxybenzohydrazide] | 199

Same assay, conditions: ratio IC50 HEK-293 / IC50 LN-229

Structure (SMILES) | Selectivity Index
O=C(N/N=C/c1ccccc1[N+](=O)[O-])c1ccc(O)cc1O [Compound 19, 2,4-dihydroxy-N-[(2-nitrophenyl)methylidene]benzohydrazide] | 1.14 × 10^3
O=C(N/N=C/c1ccccc1Cl)c1ccc(O)cc1O [Compound 22, N-[(2-chlorophenyl)methylidene]-2,4-dihydroxybenzohydrazide] | 2.85
O=C(N/N=C/c1ccccc1Br)c1ccc(O)cc1O [Compound 23, N-[(2-bromophenyl)methylidene]-2,4-dihydroxybenzohydrazide] | 5.85 × 10^2
O=C(N/N=C/c1ccccc1F)c1ccc(O)cc1O [Compound 24, N-[(2-fluorophenyl)methylidene]-2,4-dihydroxybenzohydrazide] | 1.94

Test system: 769-P
Test: MTT antiproliferative assay
Assay type: cell-based, human
Conditions: Homo sapiens, 769-P; MTT, 24 h incubation, renal adenocarcinoma
Method: as §1, §2, §3

Structure (SMILES) | IC50 [µM]
O=C(N/N=C/c1ccccc1[N+](=O)[O-])c1ccc(O)cc1O [Compound 19, 2,4-dihydroxy-N-[(2-nitrophenyl)methylidene]benzohydrazide] | 45.4
O=C(N/N=C/c1cccc([N+](=O)[O-])c1)c1ccc(O)cc1O [Compound 20, 2,4-dihydroxy-N-[(3-nitrophenyl)methylidene]benzohydrazide] | > 500
O=C(N/N=C/c1ccc([N+](=O)[O-])cc1)c1ccc(O)cc1O [Compound 21, 2,4-dihydroxy-N-[(4-nitrophenyl)methylidene]benzohydrazide] | 12.4
O=C(N/N=C/c1ccccc1Cl)c1ccc(O)cc1O [Compound 22, N-[(2-chlorophenyl)methylidene]-2,4-dihydroxybenzohydrazide] | 262
O=C(N/N=C/c1ccccc1Br)c1ccc(O)cc1O [Compound 23, N-[(2-bromophenyl)methylidene]-2,4-dihydroxybenzohydrazide] | > 500
O=C(N/N=C/c1ccccc1F)c1ccc(O)cc1O [Compound 24, N-[(2-fluorophenyl)methylidene]-2,4-dihydroxybenzohydrazide] | > 500

Same assay, conditions: ratio IC50 HEK-293 / IC50 769-P

Structure (SMILES) | Selectivity Index
O=C(N/N=C/c1ccccc1[N+](=O)[O-])c1ccc(O)cc1O [Compound 19, 2,4-dihydroxy-N-[(2-nitrophenyl)methylidene]benzohydrazide] | 3.29 × 10^3
O=C(N/N=C/c1ccccc1Cl)c1ccc(O)cc1O [Compound 22, N-[(2-chlorophenyl)methylidene]-2,4-dihydroxybenzohydrazide] | 1.20

Test system: not listed separately
Test: in vivo
Conditions: in vivo
Method: Wild-type AB strain zebrafish (Danio rerio) were housed in the Experimental Medicine Centre of Medical University of Lublin (Lublin, Poland), where all the experimental procedures on embryos and larvae were carried out. The animals were kept on a recirculating water supply at 26 ± 1 °C and a 10/14 dark–light cycle, and they were fed with artemia and commercial feed. Danio rerio embryos were obtained from females between 4 and 15 months of age. […] In order to avoid genetic bias in the study, eggs were randomly collected from at least three breeding groups, rinsed, and placed in Petri dishes in the cultured medium, which for Danio rerio is E3 solution. […] In accordance with the legislation of the European Union and Poland, the experiments performed on the earliest life-stages of Danio rerio until 120 h post-fertilization (120 hpf), not defined as protected, are not subject to regulations for animal experimentation.
They address the testing of chemicals using the Fish Embryo Acute Toxicity (FET) test with the species Danio rerio.
Immediately after fertilization, eggs were placed in sterile 24-well plates and exposed for 96 h to at least five concentrations of the test chemical, ranging from 1 to 500 µM and prepared ex tempore on each day of exposure, according to the principle of one egg per well and one concentration per plate. In each plate, 20 wells were filled with the solutions of the tested substance, and 4 wells of the last column were a negative internal control with E3 medium. Each well was filled with 2 mL of solution. Positive control plates were also prepared according to this scheme with 4 mg/L of 3,4-dichloroaniline (Sigma-Aldrich, Poznań, Poland) and a negative control with E3, and a negative solvent control with 1% DMSO, which was used as a solvent for the tested substances. At four time points, microscopic observations were made every 24 h. As indicators of mortality (so-called terminal observations; when at least one of these occurs, embryonic death is declared), the following were recorded: the coagulation of embryos, a lack of somite formation, a lack of detachment of the tail from the yolk sac and a lack of a heartbeat, which was observed from the 48th hour of the study. To confirm the absence of a heartbeat, a microscopic observation was conducted at 80× magnification for one minute. Then, the solutions of the tested chemicals, to maintain their constant composition throughout the test, were replaced with fresh ones, and the plates were incubated for another 24 h in an incubator at 26 ± 1 °C. […] In addition, a quantitative and qualitative summary of the morphological and physiological abnormalities that occurred in the tested Danio rerio embryos and larvae was also made. These included yolk sac edema, pericardial edema, spinal flexure, head deformities, tail deformities, developmental delay defined as a lack of hatching success for 96 hpf larvae, and also bradycardia.
Regression analysis was performed with Excel, and the above-mentioned values were obtained from the linear type of regression analysis. […] The results obtained from the heart rate study of 96 hpf zebrafish larvae were subjected to statistical analysis using one-way analysis of variance (ANOVA) and a post hoc Bonferroni test. The significance level was taken as p < 0.05.

Structure (SMILES) | LC50 at 96 h
O=C(N/N=C/c1cccc([N+](=O)[O-])c1)c1ccc(O)cc1O [Compound 20, 2,4-dihydroxy-N-[(3-nitrophenyl)methylidene]benzohydrazide] | 34.8 mM and 10500 µg/mL
O=C(N/N=C/c1ccc([N+](=O)[O-])cc1)c1ccc(O)cc1O [Compound 21, 2,4-dihydroxy-N-[(4-nitrophenyl)methylidene]benzohydrazide] | 370 µM and 110 µg/mL
O=C(N/N=C/c1ccccc1Cl)c1ccc(O)cc1O [Compound 22, N-[(2-chlorophenyl)methylidene]-2,4-dihydroxybenzohydrazide] | 56.6 µM and 16.4 µg/mL
O=C(N/N=C/c1ccccc1Br)c1ccc(O)cc1O [Compound 23, N-[(2-bromophenyl)methylidene]-2,4-dihydroxybenzohydrazide] | 85.6 µM and 30.4 µg/mL
O=C(N/N=C/c1ccccc1F)c1ccc(O)cc1O [Compound 24, N-[(2-fluorophenyl)methylidene]-2,4-dihydroxybenzohydrazide] | 4.24 mM and 1160 µg/mL

Test system: HEK-293
Test: MTT cytotoxicity assay, reference line
Assay type: cell-based
Conditions: Homo sapiens, HEK293, 24 h incubation, non-tumor reference line
Method: as §1
The determination of inhibitory concentration (IC50) in the HEK-293, 769-P, HepG2, H1563, and LN-229 cell cultures for selected hydrazide–hydrazones was performed using the MTT assay procedure. This test was performed according to the MTT Assay ECVAM n°17 protocol manual prepared by the European Centre for the Validation of Alternative Methods (ECVAM), an entity that aims to reduce in vivo testing in favor of in vitro and in silico methods. To 96-well sterile plates, 100 μL of cell suspensions, prepared in the appropriate medium at a concentration of 3 × 10^5 cells/mL, was added using a multichannel pipette. To achieve cell adhesion to the bottom of the plates, cells were incubated for 24 h at 37 °C with 5% CO2 flow and 90% humidity. […] After this time, all medium was removed, 100 μL of DMSO (Corning Incorporated, Corning, NY, USA) was added to each well, and absorbance measurements were performed at 550 nm using a Power Weave xs spectrophotometric microplate reader (BioTek, Winooski, VT, USA). The decrease in absorbance is equivalent to the decrease in MTT formazan production, which is due to the decrease in mitochondrial dehydrogenase activity and indicates a cytotoxic effect from the tested substances. Cell viability is expressed as a percentage as the ratio of the absorbance of test substance-treated cells to the untreated cells. […]

Structure (SMILES) | IC50 [mM]
O=C(N/N=C/c1cccc([N+](=O)[O-])c1)c1ccc(O)cc1O [Compound 20, 2,4-dihydroxy-N-[(3-nitrophenyl)methylidene]benzohydrazide] | 13.4
O=C(N/N=C/c1ccccc1Cl)c1ccc(O)cc1O [Compound 22, N-[(2-chlorophenyl)methylidene]-2,4-dihydroxybenzohydrazide] | 0.315
O=C(N/N=C/c1ccccc1Br)c1ccc(O)cc1O [Compound 23, N-[(2-bromophenyl)methylidene]-2,4-dihydroxybenzohydrazide] | 91.8
O=C(N/N=C/c1ccccc1F)c1ccc(O)cc1O [Compound 24, N-[(2-fluorophenyl)methylidene]-2,4-dihydroxybenzohydrazide] | 0.387
